SMILES strings stand for the structures.

The source of these data is patent US20240000806A1, “METHODS AND MATERIALS FOR INHIBITING CB1 ACTIVITY” (University of Pittsburgh - Of the Commonwealth System of …, priority 2020, published 2024).

Sequence of CB1 (CNR1) (P21554 whole entry): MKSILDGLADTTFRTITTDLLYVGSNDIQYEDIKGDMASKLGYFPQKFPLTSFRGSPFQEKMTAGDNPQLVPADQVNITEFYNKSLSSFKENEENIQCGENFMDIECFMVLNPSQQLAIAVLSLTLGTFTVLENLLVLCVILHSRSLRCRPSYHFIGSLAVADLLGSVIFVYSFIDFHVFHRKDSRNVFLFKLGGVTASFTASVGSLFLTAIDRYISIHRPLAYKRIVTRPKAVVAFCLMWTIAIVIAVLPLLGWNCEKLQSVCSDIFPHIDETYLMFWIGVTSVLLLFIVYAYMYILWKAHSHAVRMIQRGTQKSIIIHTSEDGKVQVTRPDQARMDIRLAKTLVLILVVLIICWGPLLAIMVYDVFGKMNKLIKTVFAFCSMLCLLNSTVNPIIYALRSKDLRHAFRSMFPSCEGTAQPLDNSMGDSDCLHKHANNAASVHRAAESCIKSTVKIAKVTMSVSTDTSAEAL

The target in this assay is CB1 (CNR1) (Homo sapiens, UniProt P21554). Briefly: cAMP CNR1 Hunter cell line antagonist assay (CB1 assay). It counts as cell-based. The following applies: antagonist mode, cAMP CNR1 Hunter cells, EC80 agonist; read-out: CB1 assay, Efficacy (IC50). How it is done:
cAMP CNR1 Hunter cell line (Eurofins DiscoveryX) were expanded from freezer stocks and seeded in a total volume of 20 μL into white walled, 384-well microplates and incubated at 37° C. for the appropriate time prior to testing. For antagonist determination, cell media was aspirated from cells and replaced with 10 μL 1:1 HBSS/Hepes:cAMP XS+Ab reagent. 5 μL of 4× compound was added to the cells and incubated at 37° C. for 30 minutes. 5 μL of 4× EC80 agonist was added to cells and incubated at 37° C. for 30 minutes. After appropriate compound incubation, assay signal was generated through incubation with 20 μL cAMP XS+ED/CL lysis cocktail for one hour followed by incubation with 20 μL cAMP XS+EA reagent for three hours at room temperature. Microplates were read following signal generation with a PerkinElmer Envision™ instrument for chemiluminescent signal detection. Compound activity (IC50) was analyzed using CBIS data analysis suite (ChemInnovation, CA).
As to `CC1Oc2c(cc(Cl)cc2S(=O)(=O)Nc2ccccc2)NC1=O` (centres unmarked) [BC19291], the IC50 was no less than 25 µM.
As for `CC1Oc2cc(S(=O)(=O)Nc3ccc(F)cc3Cl)c(Cl)cc2NC1=O` (centres unmarked) [BC19719], the figure is 1 to 25 µM.
Then `O=C1COc2cc(S(=O)(=O)Nc3ccc(C(F)(F)F)cc3Cl)c(Br)cc2N1` [BC19390], with no less than 25 µM; and `CC(C)(C)C1CCC(NS(=O)(=O)c2cc(Br)cc3c2OCC(=O)N3)CC1` (centres unmarked) [BC19380], with no less than 25 µM.
Then `CCS(=O)(=O)c1cc2c(c(S(=O)(=O)Nc3ccc(C(C)C)cc3)c1)OCC(=O)N2` [BC19493], with no less than 25 µM.
With `CCc1ccc(NS(=O)(=O)c2cc3c(cc2Br)NC(=O)CO3)cc1` [BC19138], the IC50 is less than 1 µM.
As for `O=C1COc2cc(S(=O)(=O)Nc3ccc(F)cc3F)c(Br)cc2N1` [BC19166], the figure is less than 1 µM; as for `Cc1ccc(NS(=O)(=O)c2cc(Br)cc3c2OCCNC3=O)cc1F` [BC19552], no less than 25 µM; as for `Cc1ccc(NS(=O)(=O)c2cc(Br)cc3c2OCCC(=O)N3)cc1Cl` [BC19651], no less than 25 µM.
Then `CCC1Oc2cc(S(=O)(=O)Nc3ccccc3)c(Br)cc2N(C)C1=O` (centres unmarked) [BC19928], with no less than 25 µM; and `CCS(=O)(=O)c1cc2c(c(S(=O)(=O)Nc3ccc(C)c(F)c3)c1)OCC(=O)N2` [BC19436], with no less than 25 µM; and `CC1Oc2cc(S(=O)(=O)Nc3cccc(Cl)c3)c(Br)cc2N(C)C1=O` (centres unmarked) [BC19905], with no less than 25 µM.
As for `Cc1ccc(NS(=O)(=O)c2c(C)c(Cl)cc3c2OCC(=O)N3)cc1` [BC19432], the figure is no less than 25 µM; as for `CC(C)CNS(=O)(=O)c1cc2c(cc1Br)NC(=O)C(C)O2` (centres unmarked) [BC19218], 1 to 25 µM.
Turning to `CCc1ccc(NS(=O)(=O)c2cc3c(cc2Br)NC(=O)C(CC(C)C)O3)cc1` (centres unmarked) [BC19764], the IC50 fell in the range of 1 to 25 µM.
Consider `CC1Oc2c(cc(Cl)cc2S(=O)(=O)Nc2ccc(C(C)C)cc2)NC1=O` (centres unmarked) [BC19705], for which the IC50 fell in the range of 1 to 25 µM.
As for `CC1Oc2cc(S(=O)(=O)Nc3ccc(C(C)C)cc3)c(Cl)cc2NC1=O` (centres unmarked) [BC19704], the figure is no less than 25 µM; as for `CCc1ccc(NS(=O)(=O)c2cc(Cl)cc3c2OC(C)C(=O)N3)cc1` (centres unmarked) [BC19703], 1 to 25 µM.
As for `Cc1ccc(NS(=O)(=O)c2cc3c(cc2Br)NC(=O)CCO3)cc1F` [BC19653], the figure is no less than 25 µM; as for `CC(C)c1ccc(NS(=O)(=O)c2cc3c(cc2Cl)NC(=O)CO3)cc1` [BC19136], less than 1 µM; as for `O=C1CCOc2cc(S(=O)(=O)Nc3ccc(Cl)cc3)c(Br)cc2N1` [BC19656], no less than 25 µM.
Then `CCC1Oc2cc(S(=O)(=O)Nc3cccc(F)c3)c(Br)cc2NC1=O` (centres unmarked) [BC19220], with no less than 25 µM; and `CC1Oc2cc(S(=O)(=O)NCCc3ccc(OC(F)(F)F)cc3)c(Br)cc2NC1=O` (centres unmarked) [BC19359], with 1 to 25 µM; and `CC1Oc2cc(S(=O)(=O)Nc3ccc(F)cc3F)c(Br)cc2N(C)C1=O` (centres unmarked) [BC19799], with no less than 25 µM.
Take `O=C(O)c1cc2c(c(NS(=O)(=O)c3ccc(F)c(F)c3)c1)N1CCCC1C(=O)N2` (centres unmarked) [BC19917]: the IC50 lay in the range of 1 to 25 µM.
Then `CS(=O)(=O)c1cc2c(c(S(=O)(=O)Nc3cccc(F)c3)c1)OCC(=O)N2` [BC19426], with no less than 25 µM; and `O=C1COc2cc(S(=O)(=O)NCc3ccc(C(F)(F)F)cc3)c(Br)cc2N1` [BC19391], with no less than 25 µM; and `CCc1ccc(NS(=O)(=O)c2cc(S(=O)(=O)CC)cc3c2OCC(=O)N3)cc1` [BC19492], with no less than 25 µM.
As for `CC1Oc2cc(S(=O)(=O)NCc3ccc(F)cc3F)c(Br)cc2NC1=O` (centres unmarked) [BC19356], the figure is no less than 25 µM; as for `CCc1cccc(NS(=O)(=O)c2cc(Br)cc3c2OCC(=O)N3)c1` [BC19180], no less than 25 µM; as for `CC1Oc2c(cc(Br)cc2S(=O)(=O)Nc2ccc(F)cc2Cl)NC1=O` (centres unmarked) [BC19289], no less than 25 µM.
In the case of `CCC1Oc2cc(S(=O)(=O)Nc3ccc(F)c(F)c3)c(Br)cc2N(C)C1=O` (centres unmarked) [BC19926], the 50% inhibitory concentration (IC50) is no less than 25 µM.
As to `CC(C)NS(=O)(=O)c1cc(Cl)cc2c1OC(C)C(=O)N2` (centres unmarked) [BC19293], the IC50 is no less than 25 µM.
Then `CC(C)c1ccc(NS(=O)(=O)c2cc(S(C)(=O)=O)cc3c2OCC(=O)N3)cc1` [BC19424], with no less than 25 µM; and `O=C1COc2c(cc(Br)cc2S(=O)(=O)Nc2ccc(F)c(F)c2)N1` [BC19177], with 1 to 25 µM.
As for `CCC1Oc2c(cc(Br)cc2S(=O)(=O)NCc2ccc(C(F)(F)F)cc2)NC1=O` (centres unmarked) [BC19377], the figure is no less than 25 µM.
As for `CCC1Oc2c(cc(Cl)cc2S(=O)(=O)Nc2ccc(C)c(Cl)c2)NC1=O` (centres unmarked) [BC19746], the figure is 1 to 25 µM; as for `CC(C)CC1Oc2c(cc(Br)cc2S(=O)(=O)Nc2ccc(F)cc2)NC1=O` (centres unmarked) [BC19781], 1 to 25 µM; as for `CC1Oc2cc(S(=O)(=O)Nc3ccc(F)cc3)c(Br)cc2N(C)C1=O` (centres unmarked) [BC19910], no less than 25 µM.
With `CCc1cccc(NS(=O)(=O)c2cc3c(cc2Br)NC(=O)C(C)O3)c1` (centres unmarked) [BC19283], the IC50 was 1 to 25 µM.
As for `CCCNS(=O)(=O)c1cc2c(cc1Cl)NC(=O)C(CC)O2` (centres unmarked) [BC19214], the figure is no less than 25 µM; as for `CN1CC(=O)Nc2ccc(S(=O)(=O)N3CCCC3)cc21` [BC19181], no less than 25 µM.
With `CC1Oc2cc(S(=O)(=O)Nc3ccc(F)c(F)c3)c(Br)cc2NC1=O` (centres unmarked) [BC19284], the IC50 was no less than 25 µM.
For the compound `CC1Oc2c(cc(Br)cc2S(=O)(=O)Nc2ccc(Cl)cc2)N(C)C1=O` (centres unmarked) [BC19791], the IC50 was no less than 25 µM.
Then `CCNS(=O)(=O)c1cc2c(cc1Cl)NC(=O)C(C)O2` (centres unmarked) [BC19209], with no less than 25 µM; and `CC(C)CC1Oc2cc(S(=O)(=O)Nc3ccc(F)cc3)c(Br)cc2NC1=O` (centres unmarked) [BC19782], with no less than 25 µM.
Then `CNC(=O)N1CC(=O)Nc2ccc(S(=O)(=O)N3CCCC3)cc21` [BC19183], with 1 to 25 µM; and `CC(C)CC1Oc2cc(S(=O)(=O)Nc3ccc(F)cc3F)c(Br)cc2NC1=O` (centres unmarked) [BC19770], with no less than 25 µM; and `O=C1COc2cc(S(=O)(=O)NC3CCC(O)CC3)c(Br)cc2N1` (centres unmarked) [BC19389], with no less than 25 µM.
Then `O=C1CCOc2cc(S(=O)(=O)Nc3cccc(Cl)c3)c(Br)cc2N1` [BC19655], with no less than 25 µM; and `O=C1NCCOc2c1cc(Br)cc2S(=O)(=O)Nc1cccc(F)c1` [BC19610], with 1 to 25 µM; and `Cc1ccc(NS(=O)(=O)c2cc3c(cc2Cl)NC(=O)C(C)O3)cc1F` (centres unmarked) [BC19700], with 1 to 25 µM.
With `O=C1COc2c(cc(Br)cc2S(=O)(=O)NCc2ccc(C(F)(F)F)cc2)N1` [BC19382], the IC50 lay in the range of 1 to 25 µM.
As for `COc1ccc(NS(=O)(=O)c2cc3c(cc2Br)NC(=O)CCO3)cc1` [BC19692], the figure is less than 1 µM.
As for `CCc1ccc(NS(=O)(=O)c2cc(S(C)(=O)=O)cc3c2OCC(=O)N3)cc1` [BC19484], the figure is no less than 25 µM; as for `CC1Oc2cc(S(=O)(=O)Nc3ccc(OC(F)(F)F)cc3)c(Br)cc2N(C)C1=O` (centres unmarked) [BC19784], no less than 25 µM; as for `CCC1Oc2cc(S(=O)(=O)Nc3ccc(C)cc3)c(Cl)cc2NC1=O` (centres unmarked) [BC19753], 1 to 25 µM.
Then `CC1Oc2cc(S(=O)(=O)Nc3ccc(C(C)C)cc3)c(Br)cc2N(C)C1=O` (centres unmarked) [BC19794], with no less than 25 µM.
Take `CCC1Oc2cc(S(=O)(=O)Nc3cccc(SC)c3)c(Cl)cc2NC1=O` (centres unmarked) [BC19213]: the IC50 is no less than 25 µM.
Then `CCC1Oc2c(cc(Br)cc2S(=O)(=O)Nc2cccc(F)c2)NC1=O` (centres unmarked) [BC19231], with no less than 25 µM; and `CC1Oc2c(cc(Cl)cc2S(=O)(=O)Nc2ccc(OC(F)(F)F)cc2)NC1=O` (centres unmarked) [BC19394], with no less than 25 µM.
Consider `CC1Oc2cc(S(=O)(=O)Nc3ccc(C#N)cc3)c(Br)cc2N(C)C1=O` (centres unmarked) [BC19920], for which the IC50 fell in the range of 1 to 25 µM.
Then `O=C1COc2cc(S(=O)(=O)NCc3ccc(F)cc3F)c(Br)cc2N1` [BC19393], with no less than 25 µM; and `CCS(=O)(=O)c1cc2c(c(S(=O)(=O)Nc3ccc(F)cc3Cl)c1)OCC(=O)N2` [BC19442], with no less than 25 µM; and `CCC1Oc2c(cc(Br)cc2S(=O)(=O)NC2CCC(C(C)(C)C)CC2)NC1=O` (centres unmarked) [BC19379], with 1 to 25 µM.
As for `CC(=O)N1c2cc(S(=O)(=O)N3CCCC3)ccc2NC(=O)C1C` (centres unmarked) [BC19182], the figure is less than 1 µM.
As for `O=C1CCOc2cc(S(=O)(=O)Nc3ccc(F)cc3)c(Br)cc2N1` [BC19660], the figure is no less than 25 µM; as for `CCS(=O)(=O)c1cc2c(c(S(=O)(=O)Nc3ccc(Cl)cc3)c1)OCC(=O)N2` [BC19491], no less than 25 µM.
For the compound `CC1Oc2cc(S(=O)(=O)Nc3ccc(F)cc3Cl)c(Br)cc2N(C)C1=O` (centres unmarked) [BC19907], the IC50 is no less than 25 µM.
Then `CC1Oc2c(cc(Br)cc2S(=O)(=O)NC2CCC(O)CC2)NC1=O` (centres unmarked) [BC19366], with no less than 25 µM; and `O=C1COc2cc(S(=O)(=O)Nc3ccc(OC(F)(F)F)cc3)c(Cl)cc2N1` [BC19164], with less than 1 µM.
As for `Cc1ccc(NS(=O)(=O)c2cc(S(C)(=O)=O)cc3c2OCC(=O)N3)cc1` [BC19488], the figure is no less than 25 µM.
As for `CCC1Oc2c(cc(Br)cc2S(=O)(=O)Nc2ccc(F)c(F)c2)N(C)C1=O` (centres unmarked) [BC19925], the figure is 1 to 25 µM.
With `CCC1Oc2cc(S(=O)(=O)Nc3ccc(C)cc3)c(Br)cc2NC1=O` (centres unmarked) [BC19224], the IC50 is no less than 25 µM.
As for `CCC1Oc2cc(S(=O)(=O)Nc3ccc(C)c(Cl)c3)c(Br)cc2N(C)C1=O` (centres unmarked) [BC19938], the figure is no less than 25 µM; as for `CC1Oc2cc(S(=O)(=O)Nc3ccc(F)cc3F)c(Cl)cc2NC1=O` (centres unmarked) [BC19709], 1 to 25 µM.
As for `CC1Oc2c(cc(Cl)cc2S(=O)(=O)Nc2ccc(F)cc2)NC1=O` (centres unmarked) [BC19722], the figure is 1 to 25 µM.

A word on the IC50: it is the concentration needed to halve the response being measured.
